Assay results published in patent US7238801B2, “Phthalocyanine compound, method for production thereof, and near infrared absorbing dye and near infrared absorbing filter using same” (Nippon Shokubai Co., Ltd., priority 2002, dated 2007).
Read-outs that look alike come from different tables or passages of the source.

Columns and labels:
Type in all cases: physicochemical
[1] = Maximum absorption wavelength by spectrophotometer
Experimental: Now, working examples and comparative examples will be described below. The maximum absorption wavelengths (λmax) reported in this invention are magnitudes determined in acetone.
The phthalocyanine compound obtained in the present example, i.e. VOPc(PhS)8{2,6-(CH3)2PhO}4{(C2H5)2NCH2CH2NH}4, was tested for maximum absorption wavelengths in acetone and in chloroform by the use of a spectrophotometer (made by Shimadzu Seisakusho Ltd. and sold under the trademark designation of “UVl-3100”).

[2] = Solubility in toluene and methyl ethyl ketone at room temperature; conditions: 10 ml, room temperature (25° C.), visual; for Solubility MEX: methyl ethyl ketone
Description: The solubility shown in Table 23 represents the data obtained by rating the relevant values on the […] scale, wherein ⊚ stands for a value of not less than 5% by weight, ◯ for a value of not less than 1% by weight and less than 5% by weight, Δ for a value of not less than 0.1% by weight and less than 1% by weight, and X for a value of less than 0.1% by weight.

[3] = Maximum absorption wavelength by spectrophotometer; remark: listed apart in the source

Row | Substance | Max. absorption wavelength (in acetone) [1] [nm] | Max. absorption wavelength (in chloroform) [1] [nm] | Solubility MEX [2] | Solubility toluene [2] | Max. absorption wavelength (in acetone) [3] [nm]
1 | VOPc(2,5-Cl2PhO)8{2,6-(CH3)2PhO}4(PhCH2NH)4 [reference compound] | 870 |  |  |  | 
2 | VOPc(PhS)8{2,6-(CH3)2PhO}4{CH3(CH2)3CH(C2H5)CH2O(CH2)3NH}4 [Example 11] | 933 | 952 | ⊚ (a value of not less than 5% by weight) | ⊚ (a value of not less than 5% by weight) | 
3 | VOPc{2-(CH3O)PhS}8{2,6-(CH3)2PhO}4{(C2H5)2NCH2CH2NH}4 [Example 2] | 950 | 970 | ⊚ (a value of not less than 5% by weight) | ⊚ (a value of not less than 5% by weight) | 
4 | VOPc(2,5-Cl2PhO)8{2,6-Br2-4-CH3PhO}4 {Ph(CH)3CHNH}3]F [reference compound] | 840 |  |  |  | 
5 | VOPc(PhS)8{2,6-(CH3)2PhO}4{CH3(CH2)7NH}4 [Example 18] | 931 | 950 | ⊚ (a value of not less than 5% by weight) | ⊚ (a value of not less than 5% by weight) | 
6 | VOPc(PhS)8{2,6-(CH3)2PhO}4{(CH3CH2O(CH2)3NH}4 [Example 8] | 928 | 947 | ⊚ (a value of not less than 5% by weight) | ⊚ (a value of not less than 5% by weight) | 
7 | VOPc(PhS}8{2,6-(CH3)2PhO}4[{CH3(CH2)2CH}2NCH2CH2NH]4 [Example 4] | 944 | 963 | ⊚ (a value of not less than 5% by weight) | ⊚ (a value of not less than 5% by weight) | 
8 | VOPc(4-CNPhO)8{2,6-(CH3)2PhO}4{Ph(CH)3CHNH}3F [reference compound] | 834 |  |  |  | 
9 | VOPc(PhS)8{2,6-(CH3)2PhO}4[{(CH3)2CH}2NCH2CH2NH]4 [Example 3] | 952 | 970 | ⊚ (a value of not less than 5% by weight) | ⊚ (a value of not less than 5% by weight) | 
10 | CuPc(2,5-Cl2PhO)8{2,6-(CH3)2PhO}4(PhCH2NH)4 [reference compound] | 807 |  |  |  | 
11 | VOPc(PhS)8{2,6-(CH3)2PhO}4{(C2H5)2NCH2CH2NH}4 [Example 1] | 941 | 960 | ⊚ (a value of not less than 5% by weight) | ⊚ (a value of not less than 5% by weight) | 
12 | VOPc(PhS)8{2,6-(CH3)2PhO}4{CH3(CH2)5NH}4 [Example 15] | 930 | 948 | ⊚ (a value of not less than 5% by weight) | ⊚ (a value of not less than 5% by weight) | 
13 | VOPc(PhS)8{2,6-(CH3)2PhO}4{(CH3)2CHO(CH2)3NH}4 [Example 9] | 930 | 949 | ⊚ (a value of not less than 5% by weight) | ⊚ (a value of not less than 5% by weight) | 
14 | VOPc{4-(CH3O)PhS}8{2,6-(CH3)2PhO}4{CH3(CH2)3CH(C2H5)CH2NH}4 [Example 17] | 960 | 980 | ⊚ (a value of not less than 5% by weight) | ⊚ (a value of not less than 5% by weight) | 962
15 | VOPc(PhS)8{2,6-(CH3)2PhO}4{CH3(CH2)3CH(C2H5)CH2NH}4 [Example 16] | 939 | 958 | ⊚ (a value of not less than 5% by weight) | ⊚ (a value of not less than 5% by weight) | 
16 | VOPc(PhS)8{2,6-(CH3)2PhO}4{CH3(CH2)3O(CH2)3NH}4 [Example 10] | 930 | 950 | ⊚ (a value of not less than 5% by weight) | ⊚ (a value of not less than 5% by weight) | 
17 | VOPc(2,5-Cl2PhO)8{2,6-(CH3)2PhO}4{Ph(CH)3CHNH}3]F [reference compound] | 834 |  |  |  | 
18 | VOPc(PhS)8{2,6-(CH3)2PhO}4(PhCH2NH)4 [reference compound] | 912 |  |  |  | 
19 | VOPc(PhS)8{2,6-(CH3)2PhO}4{CH3(CH2)17NH}4 [Example 19] | 935 | 954 | ⊚ (a value of not less than 5% by weight) | ⊚ (a value of not less than 5% by weight) | 
